Results on 18 compounds are retold here after patent publication US20130331427A1, “METHODS OF STIMULATING CELLULAR GROWTH, SYNAPTIC, REMODELING AND CONSOLIDATION OF LONG-TERM MEMORY” (Blanchette Rockefeller Neuroscience Institute, priority 2007, published 2013).

Where two headings read alike, the source gives them in different places.

For assay [1], the system named is PKC. Kind of assay: PKC affinity of bryostatin and bryologs. The assay is classed as binding. The text has this: Structurally, they are all similar.
The subject of assay [2] is PKC. Conditions: cited from earlier work.
Another assay addresses T1, PKCε (Homo sapiens, UniProt Q02156).
T1 sequence (Q02156 1-737): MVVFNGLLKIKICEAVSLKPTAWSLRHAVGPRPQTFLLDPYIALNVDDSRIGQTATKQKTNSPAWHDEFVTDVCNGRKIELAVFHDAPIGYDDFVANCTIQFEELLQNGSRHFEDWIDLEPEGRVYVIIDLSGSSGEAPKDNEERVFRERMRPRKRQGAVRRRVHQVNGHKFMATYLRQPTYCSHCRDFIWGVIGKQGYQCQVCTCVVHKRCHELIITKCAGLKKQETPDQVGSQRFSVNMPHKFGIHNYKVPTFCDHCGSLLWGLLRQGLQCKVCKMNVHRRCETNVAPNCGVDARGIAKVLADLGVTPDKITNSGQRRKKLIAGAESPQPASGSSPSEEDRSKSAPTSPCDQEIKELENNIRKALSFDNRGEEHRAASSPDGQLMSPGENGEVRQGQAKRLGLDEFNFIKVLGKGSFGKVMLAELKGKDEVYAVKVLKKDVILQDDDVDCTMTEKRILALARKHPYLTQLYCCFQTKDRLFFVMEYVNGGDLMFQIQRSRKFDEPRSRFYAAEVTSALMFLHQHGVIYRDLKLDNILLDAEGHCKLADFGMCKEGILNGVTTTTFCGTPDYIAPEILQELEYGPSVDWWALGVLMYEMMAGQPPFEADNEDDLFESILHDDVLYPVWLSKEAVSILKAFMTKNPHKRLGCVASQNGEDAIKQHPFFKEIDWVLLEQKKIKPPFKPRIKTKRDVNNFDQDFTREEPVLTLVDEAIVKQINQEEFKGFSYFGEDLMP
Conditions: cited from earlier work.

For assay [3], the system named is murine leukemias and solid tumors. Conditions: cited from earlier work.
The test system of assay [4] is PKC. Conditions: K562 cells; cited from earlier work.
Assay [5] concerns cyclin dependent kinase 2 (Cdk2). Conditions: at 5 ng/ml; cited from earlier work.
Assay [6] concerns the target PKC. Conditions: [3H]phorbol dibutyrate competition; read-out: Ki for binding; cited from earlier work.
The subject of assay [7] is squamous cell carcinoma and melanoma. Conditions: used topically; cited from earlier work.
A further assay concerns NCI 60 cell line screen. Conditions: cited from earlier work.
For the next assay, the system named is Hermissenda Crassicornis. Kind of assay: Pavlovian conditioning of Hermissenda, memory retention. Format: in vivo. The method, then:
Specimens of Hermissenda Crassicornis were maintained in artificial sea water (ASW) at 15° for three days in perforated 50-ml conical centrifuge tubes before starting experiments. […] For selected experiments lactacysteine (10 μM) or anisomycin was added to the ASW.
Pavlovian conditioning of Hermissenda involves repeated pairings of a neutral stimulus, light, with an unconditioned stimulus, orbital shaking. (See, Lederhendler et al. (24) and Epstein et al. (6)). A rotation/shaking stimulus excites the statocyst hair cells and thereby elicits an unconditioned response: a brisk contraction of the muscular undersurface called a foot, accompanied by adherence or “clinging” to the surface that supports the foot. Before conditioning, light elicits a weakly positive phototaxis accompanied by lengthening of the foot. After sufficient light-rotation pairings, light no longer elicits phototaxis, but instead elicits a new response (24): the “clinging” and foot shortening previously elicited only by the unconditional stimulus (FIG. 1). Thus, the meaning of the unconditioned stimulus, rotation or orbital shaking, has been transferred to the conditioned stimulus and is manifested by a light-elicited foot contraction—a negative change of foot length. This conditioned response to light can last for weeks, is not produced by randomized light and rotation, is stimulus-specific, and shares the other defining characteristics of mammalian Pavlovian Conditioning.
Pavlovian conditioning of Hermissenda has well-defined training parameters that produce progressively longer-lasting retention of the learned conditioned response. Two training events (2 TE) of paired light and orbital shaking (see “Methods”), for example, induce a learned conditioned response (light-elicited foot contraction or shortening) that persists without drug treatment for approximately 7 minutes. Four to six training events (4-6 TE) induce a conditioned response that persists up to several hours, but disappears approximately by 1 day after training. Nine TE produces long-term associative memory lasting many days and often up to two weeks.
All animals were tested with the CS alone at 4 h, then at 24-h intervals.

The next assay deals with CA1 neurons. Kind of assay: acute hippocampal slices, number of dendritic spines (spinophilin). Format: cell-based. Conditions: PKC blocker.
For a further assay, the system named is calexcitin. Kind of assay: calexcitin immunostaining in Hermissenda B-photoreceptors. Format: in vivo. The method, then: Following experimental treatments and testing, animals were rapidly decapitated, the central nervous systems (CNS) removed and then fixed in 4% para-formaldehyde in 20 mM Tris-buffered (pH 8) natural seawater (NSW; 0.2 μm micropore-filtered). The CNSs were then embedded in polyester wax (20), sectioned (6 μm) and immunostained using a biotinylated secondary antibody coupled to avidin-bound microperoxidase (ABC method, Vector), Aminoethylcarbazole (AEC) was used as the chromogen. The primary polyclonal antibody (designated 25U2) was raised in rabbits from the full length calexcitin protein extracted from squid optic lobes. Gray-scale intensity measures were done from digital photomicrographs on circumscribed cytoplasmic areas of the B-photoreceptors minus the same background area (non-staining neuropile).
Micrographs (A, B) depict representative tissue sections from Hermissenda eyes that were immunolabeled with the calexcitin polyclonal antibody, 25U2. […] Differences in staining intensities were measured and recorded as gray-scale intensities (0-256; B-cell cytoplasm minus tissue background).

The subject of the next assay is Rat IGF-IR cells. Kind of assay: overall protein synthesis, [35S]methionine incorporation. Conditions: PKC inhibitor also present.
Assay [8] deals with PKC. The assay is described as follows: PKC activity (histone phosphorylation) in Hermissenda nervous systems. The assay is classed as in vivo. Conditions: anisomycin 1.0 ng/ml with each bryostatin 0.25 ng/ml exposure, three successive days. The method, then:
Cells were homogenized by sonication (5 sec, 25 W) in 100 μl of 100 mM Tris-HCL pH 7.4 buffer containing 1 mM EGTA, 1 mM PMSF, and 50 mM NaF. Homogenate was transferred to a polyallomer centrifuge tube and was centrifuged at 100,000×g for 10 min at 4°. The supernatant was removed and immediately frozen on dry ice. The particulate fraction was resuspended by sonication in 100 μl of the same buffer and stored at −80°. To measure PKC, 10 μl of cytosol or particulate fraction was incubated for 15 min at 37° in the presence of 10 μM histones, 4.89 mM CaCl2, 1.2 μg/μl phosphatidyl-L-serine, 0.18 μg/μl 1.2-dioctanoyl-sn-glycerol, 10 mM MgCl2, 20 mM HEPES (pH 7.4), 0-8 mM EDTA, 4 mM EGTA, 4% glycerol, 8 μg/ml aprotinin, 8 μg/ml leupeptin, and 2 mM benzamidine. 0.5 μCi [γ^32-P]ATP was added and ^32P-phosphoprotein formation was measured by adsorption onto phosphocellulose as described previously (25). This assay was used with slight adjustments for either Hermissenda nervous system homogenates or cultured mammalian neuron homogenates.
Histone phosphorylation (See “Methods”) in isolated circumesophageal nervous systems was then measured in the cytosol fraction. […] (FIG. 12, 13).

The next assay addresses protein kinase C. Conditions: (−)-enantiomer; cited from earlier work.
Another assay deals with sAPP secretion. Conditions: control and AD fibroblasts; cited from earlier work.
For assay [9] the following is noted: 2000 IU/day; cited from earlier work.
[10] abbreviates: A-ring bryologs, read-out: affinity for PKC.

Method for Rat IGF-IR cells: [^35S]Methionine (9.1 μCi) was then added to the medium followed by analysis of radiolabel.

Consider `CCCCCCCC(=O)O[C@H]1/C(=C/C(=O)OC)C[C@H]2C[C@H](CO)OC(=O)C[C@H](O)C[C@@H]3CCC[C@H](C[C@@H]4CCO[C@H](/C=C/C(C)(C)[C@]1(O)O2)O4)O3` [Analog 1], for which the “potency relative to bryostatin-1” value in the assay on PKC [1] is “about 100 times”. Further, the “affinity for PKC, in words” value with PKC [2] is reported as “highest affinity for PKC”. On PKC [2] (read-out: PKC Affin), the Ki is 0.25 nM.
On to `CCCCCCCC(=O)O[C@H]1/C(=C/C(=O)OC)C[C@H]2C[C@H](CO)OC(=O)C[C@H](O)CCOCC[C@@H]3CCO[C@H](/C=C/C(C)(C)[C@]1(O)O2)O3` [Analog 2], for which the “affinity for PKC, in words” value in the assay with PKC [2] is listed as “maintains high affinity for PKC”. For the same compound, at PKC [2] (read-out: PKC Affin), the Ki is 6.5 nM.
Take `CCCCCC1CC1CC1CC1CCCCCCCC(=O)O` (stereo not drawn) [DCP-LA, 2-[(2-pentylcyclopropyl)methyl]cyclopropaneoctanoic acid]: the “concentration of maximal effect on PKCε” value on PKCε is 100 nM.
For `C=C(C)[C@]12C[C@@H](COC(=O)c3ccccc3)[C@@]34OC5(O[C@@H]1[C@@H]3C1O[C@]1(CO)[C@@H](O)[C@@]1(O)[C@H]4[C@@H](C(C)CCCCCC[C@@H]5O)C(C)[C@@H]1OC(=O)c1ccccc1)O2` (stereo partly drawn) [Gnidimacrin], in assay [3], the “concentrations displaying potent antitumor activity” value is 0.1 to 1 nM. The “concentration at which it acts as a PKC activator” value in the assay with PKC [4] was 0.3 nM. For the same compound, in assay [5], the “inhibition of Cdk2” value is on record as 100%.
For `CC1=C[C@]23C(=O)[C@@H](C=C(COC(=O)c4ccccc4)[C@@H](O)[C@]2(O)[C@H]1OC(=O)c1ccccc1)[C@H]1[C@@H](C[C@H]3C)C1(C)C` [Ingenol 3,20-dibenzoate], the Ki on PKC [6] was 240 nM.
Turning to `C/C=C(/C)C(=O)O[C@H]1C(C)=C[C@]23C(=O)[C@@H](C=C(CO)[C@@H](O)[C@]12O)[C@H]1[C@@H](C[C@H]3C)C1(C)C` [Ingenol-3-angelate], the antitumor activity result in assay [7] is listed as “possesses antitumor activity”.
In the case of `CC1=CC[C@H](C)C(C)(C)[C@@H]1/C=C/C(C)=C/CC[C@@]1(CO)[C@H](CCCO)/C(=C(/C)C=O)CC[C@]1(C)O` [Iripallidal], the “GI50 (concentration required to inhibit growth by 50%)” value with NCI 60 cell line screen was “from micromolar to nanomolar range”.
For `CC(=O)N[C@@H](CSC(=O)[C@]1([C@@H](O)C(C)C)NC(=O)[C@H](C)[C@@H]1O)C(=O)O` [Lactacysteine], the “acquisition or retention of behavioral training” value in the assay on Hermissenda Crassicornis (lactacysteine 10 μM alone for 4 h, 2-paired TEs 24 hrs later) is given as “no acquisition or retention of behavioral training”. The “memory after single bryostatin exposure followed by 2 TE” value in the assay with Hermissenda Crassicornis (lactacysteine 10 μM together with bryostatin 0.25 ng/ml for 4 h) was “long-term memory lasting many days”.
Regarding `Cn1cc(C2=C(c3cn(CCCSC(=N)N)c4ccccc34)C(=O)NC2=O)c2ccccc21` [RO-31-8220], in the assay on CA1 neurons, the “effect on bryostatin-induced ELAV transport and spine increase” value is listed as “suppressed”.
As to `CN(C)C[C@H]1CCn2c(c(C3=C(c4cn(C)c5ccccc45)C(=O)NC3=O)c3ccccc32)C1` [Ro-32], in the assay with Hermissenda Crassicornis (Ro-32 immediately after bryostatin plus training), the “effect on long-term memory induction” value was “did not prevent long-term memory induction”. In the assay with Hermissenda Crassicornis (applied pre-training during dark adaptation), the “effect on 6 TE plus bryostatin” value is “blocked”. For the same compound, the “effect on learning-specific calexcitin increases in the Type B cell” value in the assay on calexcitin (in vivo) is listed as “prevented”. In addition, the “effect on bryostatin-induced increase of protein synthesis” value with Rat IGF-IR cells is “partially blocked”; in the assay on Rat IGF-IR cells (listed as Ro-32-0432), “increasing significantly less”.
Turning to `COc1ccc(C[C@H]2NC[C@H](O)[C@H]2OC(C)=O)cc1` [anisomycin], the “effect on memory retention produced by 9 TE” value in the assay on Hermissenda Crassicornis (4 hour anisomycin treatment, no bryostatin) was “eliminated all memory retention”. Also, the “effect on memory from single 4 hour bryostatin exposure with 2 TE” value in the assay with Hermissenda Crassicornis (anisomycin 1.0 μg/ml) was “entirely eliminated”. Moreover, the “effect on long-term retention after three-day bryostatin treatments” value in the assay on Hermissenda Crassicornis (anisomycin 1 μg/ml for four hours post-training, 2-TEs) is listed as “did not prevent long-term retention”. In addition, the “effect on calexcitin level” value in the assay with calexcitin (anisomycin immediately after 2-paired TEs, 3 days of 4-hr bryostatin) was “did not reduce”. Further, the “effect on PKC activity, cytosolic and membrane fractions” value in the assay on PKC [8] is given as “markedly reduced”.
On to `CCCCCCCC(=O)OC1C(=CC(=O)OC)CC2CC(CO)OC(=O)CC(O)CCOC(C(C)(C)C)CC3CCOC(C=CC(C)(C)C1(O)O2)O3` (stereo not drawn) [bryolog 3], for which the Ki at PKC [2] (setting [10]) was 6.5 nM.
Consider `CCCCCCCC(=O)OC1C(=CC(=O)OC)CC2CC(CO)OC(=O)CC(O)CCOC(c3ccccc3)CC3CCOC(C=CC(C)(C)C1(O)O2)O3` (stereo not drawn) [bryolog 4], for which, on PKC [2] (setting [10]), the Ki was 2.3 nM.
As to `CCCCCCCC(=O)OC1C(=CC(=O)OC)CC2CC(CO)OC(=O)CC(O)CCOC(CCCc3ccc(Br)cc3)CC3CCOC(C=CC(C)(C)C1(O)O2)O3` (stereo not drawn) [bryolog 5], the Ki on PKC [2] (setting [10]) was 1.9 nM.
For the compound `COc1ccc2c(c[n+](C)c3c4cc5c(cc4ccc23)OCO5)c1OC` [chelerythrine], the “effect on bryostatin-induced ELAV transport and spine increase” value in the assay with CA1 neurons is reported as “suppressed”.
Turning to `CCCCCCCCc1ccc2c3c(c[nH]c13)C[C@@H](CO)NC(=O)[C@H](C(C)C)N2C` [octylindolactam V, Octylindolactam V], on protein kinase C, the EC50 – broadly, the concentration at which the effect is half-maximal – was 29 nM.
As to `CN[C@@H]1C[C@H]2O[C@@](C)([C@@H]1OC)n1c3ccccc3c3c4c(c5c6ccccc6n2c5c31)C(=O)NC4` [staurosporine], in the assay on sAPP secretion, the “effect on benzolactam-induced sAPP secretion” value is listed as “eliminated the effects of benzolactam”.
Turning to vitamin E, in assay [9], the cognitive abilities entry is reported as “did not enhance cognitive abilities”; the mortality and morbidity result was “reduced mortality and morbidity”.
